Measurements taken from PubChem BioAssay (NCI).
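Step 1: Grow cells in 96-well plates. Step 2: Expose to compound for 48 hours at 5 concentrations. Step 3: Interpolate endpoints linearly; if unreached, use highest concentration. Here, GI50 denotes the concentration required for 50% inhibition of growth. At the TGI there is no net growth.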

Columns and labels:
Assay in all cases: growth of human tumour cells (NCI), 48 h
UACC-257 melanoma = tested on: UACC-257 melanoma
CAKI-1 renal = tested on: CAKI-1 renal
UO-31 renal = tested on: UO-31 renal
ACHN renal = tested on: ACHN renal
SK-MEL-5 melanoma = tested on: SK-MEL-5 melanoma
HCC-2998 colon = tested on: HCC-2998 colon
HL-60(TB) leukemia = tested on: HL-60(TB) leukemia
A549 NSCLC = tested on: A549 NSCLC
M14 melanoma = tested on: M14 melanoma
SR leukemia = tested on: SR leukemia

SMILES | GI50 (UACC-257 melanoma) | TGI (UACC-257 melanoma) | GI50 (CAKI-1 renal) | TGI (CAKI-1 renal) | GI50 (UO-31 renal) | TGI (UO-31 renal) | GI50 (ACHN renal) | TGI (ACHN renal) | GI50 (SK-MEL-5 melanoma) | TGI (SK-MEL-5 melanoma) | GI50 (HCC-2998 colon) | TGI (HCC-2998 colon) | GI50 (HL-60(TB) leukemia) | TGI (HL-60(TB) leukemia) | TGI (A549 NSCLC) | TGI (M14 melanoma) | TGI (SR leukemia) | GI50 (A549 NSCLC) | GI50 (M14 melanoma) | GI50 (SR leukemia)
COc1ccc(C2=NN(C(C)=O)C(c3cn(-c4ccccc4)nc3-c3ccc(Cl)cc3)C2)cc1 (configuration not stated) | > 100 µM | > 100 µM | > 100 µM | > 100 µM | > 100 µM | > 100 µM | > 100 µM | > 100 µM | > 100 µM | > 100 µM | > 100 µM | > 100 µM | > 100 µM | > 100 µM | – | – | – | – | – | –
N#CCCN(c1ccc(-c2nnc(NC(=O)CNNC(=O)CC(=O)Nc3ccccc3)s2)cc1)S(=O)(=O)c1ccccc1 | – | > 100 µM | – | > 100 µM | – | > 100 µM | – | > 100 µM | – | > 100 µM | – | > 100 µM | – | > 100 µM | > 100 µM | – | – | – | – | –
O=C(Nc1nc2ncn(CC(COc3ccccc3)OC(=O)c3ccccc3)c2c(=O)[nH]1)c1ccccc1 (configuration not stated) | – | > 100 µM | – | > 100 µM | – | > 100 µM | – | > 100 µM | – | > 100 µM | – | – | – | > 100 µM | > 100 µM | > 100 µM | > 100 µM | – | – | –
COc1ccc2c(c1)CC[C@@H]1[C@@H]2CC[C@]2(C)C(c3ccco3)=C(C=O)C[C@@H]12 | 21.7 µM | 44.6 µM | 2.5 µM | 7.59 µM | 31 µM | > 100 µM | 3.56 µM | 13.5 µM | 5.72 µM | 19 µM | 6.78 µM | 26.3 µM | – | – | 65.1 µM | 30.5 µM | – | 26.1 µM | 5.24 µM | –
OCC12C3C4C1C1C2C3C41CO (configuration not stated) | – | > 100 µM | – | > 100 µM | – | > 100 µM | – | > 100 µM | – | > 100 µM | – | > 100 µM | – | – | > 100 µM | > 100 µM | – | – | – | –
CCOC(=O)c1cn(Cc2ccccc2)c(=O)n1Cc1ccccc1 | – | > 100 µM | – | > 100 µM | – | > 100 µM | – | > 100 µM | – | > 100 µM | – | > 100 µM | – | > 100 µM | > 100 µM | > 100 µM | – | – | – | –
NS(=O)(=O)c1ccc(N2N=C3c4ccccc4CC3C2c2ccc(Cl)cc2)cc1 (configuration not stated) | 11.4 µM | 32.6 µM | 18.2 µM | 32.8 µM | 7.88 µM | 23.8 µM | 17.5 µM | 31.6 µM | 2.3 µM | 5.85 µM | 10.3 µM | 27.7 µM | – | – | 34 µM | 36.1 µM | > 100 µM | 10.8 µM | 10.1 µM | 2.19 µM
C=C1C(=O)O[C@H]2[C@H]1CC/C(COC(=O)NCc1c[nH]c3ccc(Cl)cc13)=C\CC[C@@]1(C)O[C@@H]21 | 1.63 µM | 3.11 µM | 1.45 µM | 2.81 µM | 1.43 µM | 2.75 µM | 1.33 µM | 2.61 µM | 1.64 µM | 3.01 µM | 1.96 µM | 3.69 µM | – | – | 3.43 µM | 2.91 µM | 3.88 µM | 1.7 µM | 1.4 µM | 0.357 µM
COc1ccc2c(c1)OC[C@@H]1c3cc4c(cc3O[C@H]21)OCO4 | – | – | – | > 100 µM | – | > 100 µM | – | > 100 µM | – | > 100 µM | – | > 100 µM | – | > 100 µM | > 100 µM | > 100 µM | – | – | – | –
Cc1ccccc1CN1CC=c2ccccc2=N1 | – | > 100 µM | – | > 100 µM | – | > 100 µM | – | > 100 µM | – | > 100 µM | – | > 100 µM | – | – | > 100 µM | > 100 µM | – | – | – | –
O=c1c2ccccc2c2nc3ccccc3nc2n1C1CCCCC1 | – | > 100 µM | – | > 100 µM | – | > 100 µM | – | > 100 µM | – | > 100 µM | – | > 100 µM | – | – | > 100 µM | – | > 100 µM | – | – | –
O=C(NC1=NC2C=CC([N+](=O)[O-])=CC2S1)C(=O)Nn1c(=S)[nH]c2ccccc2c1=O (configuration not stated) | – | > 100 µM | – | > 100 µM | – | > 100 µM | – | 85.3 µM | – | > 100 µM | – | > 100 µM | – | > 100 µM | > 100 µM | > 100 µM | – | – | – | –
Cc1nc(NC(=O)CCCN2C(=O)c3cccc4cccc(c34)C2=O)sc1C(=O)Nc1cc(C(=O)NCCCN(C)C)n(C)c1 | – | – | > 100 µM | > 100 µM | > 100 µM | > 100 µM | > 100 µM | > 100 µM | > 100 µM | > 100 µM | > 100 µM | > 100 µM | > 100 µM | > 100 µM | > 100 µM | > 100 µM | > 100 µM | > 100 µM | > 100 µM | > 100 µM
CCC(C)C(NC(=O)C1CCCN1C(=O)C(NC(=O)C(C)N)C(C)C)C(N)=O (configuration not stated) | > 100 µM | > 100 µM | > 100 µM | > 100 µM | > 100 µM | > 100 µM | > 100 µM | > 100 µM | > 100 µM | > 100 µM | – | – | > 100 µM | > 100 µM | > 100 µM | > 100 µM | – | > 100 µM | > 100 µM | –
Cc1ccc(C)c(-c2csc(Nc3ccc(C)c(C)c3)n2)c1 | > 100 µM | > 100 µM | > 100 µM | > 100 µM | > 100 µM | > 100 µM | 82.2 µM | > 100 µM | > 100 µM | > 100 µM | > 100 µM | > 100 µM | > 100 µM | > 100 µM | > 100 µM | – | > 100 µM | > 100 µM | – | > 100 µM
COc1ccc2nc3ccccc3c(NCCCCCCN(C)CCCl)c2c1 | – | 3.19 µM | – | 3.19 µM | – | – | – | 2.36 µM | – | 2.16 µM | – | 1.98 µM | – | – | 3.34 µM | 2.3 µM | – | – | – | –
O=C1C(=O)C(Br)(Br)C(Br)=C1Br | – | 43.6 µM | – | 34.9 µM | – | 33.5 µM | – | 29.6 µM | – | 29.4 µM | – | 62 µM | – | 38.2 µM | > 100 µM | 32.4 µM | – | – | – | –
COc1ccc(-c2ccc(C3CC(c4ccc(Cl)cc4)=NN3)o2)c([N+](=O)[O-])c1 (configuration not stated) | > 100 µM | > 100 µM | – | – | > 100 µM | > 100 µM | – | – | > 100 µM | > 100 µM | > 100 µM | > 100 µM | > 100 µM | > 100 µM | > 100 µM | > 100 µM | > 100 µM | > 100 µM | > 100 µM | > 100 µM
